This test has as its system 429239-143-T-J1-PDC complex spheroid viability. Briefly: Anticancer human tumor 429239-143-T-J1-PDC patient-derived small cell lung carcinoma cell line growth inhibition [POLQ]. To be noted: for viability, T/C: stronger effect = lower value; for IC50: curve of compound. Summed up:
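PDC + HUVEC + MSC complex spheroids; POLQ inhibitors ± partner drugs; top conc. at/near clinical Cmax, else 10 microM (SN-38 1 microM), half-log dilutions; 37 degrees C, 5% CO2.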

“And” between values parts separate entries of the source, which are not always exact repeats. Identical values can stand only once.
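Also: luminescence signal used as surrogate measure of viable cells; spheroids exposed to compounds for seven days before readout.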
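For viability, T/C in this document: 100% = DMSO vehicle control viability as luminescence relative to vehicle.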

As to `CCc1c2c(nc3ccc(O)cc13)-c1cc3c(c(=O)n1C2)COC(=O)[C@]3(O)CC`, the IC50 (in general, the concentration that inhibits the measured activity by half) was less than 0.00316 µM. Moreover, the viability, T/C – broadly, the ratio of treated to control – (compound 0.00316 µM) was 14.7% and 8.09% and 15.9%. Further, the viability, T/C (compound 0.01 µM) is 15.4% and 8.23% and 16.2%. Besides, the viability, T/C (compound 0.0316 µM) was 15.1% and 8.92% and 18.4%. For the same compound, under “compound 0.1 µM”, the viability, T/C was 18% and 6.71% and 16.7%. Also, the viability, T/C (compound 0.316 µM) was 14.7% and 5.07% and 16%. For the same compound, for the setting “compound 1 µM”, the viability, T/C was 4.2% and 2.5% and 5.57%.
With `O=C(Nc1ccc(O)c(NS(=O)(=O)c2ccc(F)cc2)c1)c1ccc(-c2ccccc2)cc1`, the IC50 is greater than 10 µM. In addition, the viability, T/C (compound 0.0316 µM) was 100% and 92.5% and 95.2%. For the same compound, under “compound 0.1 µM”, the viability, T/C was 106% and 123% and 96.5%. In addition, the viability, T/C (compound 0.316 µM) was 105% and 106% and 107%. Moreover, the viability, T/C (compound 1 µM) was 103% and 107% and 99.5%. Further, the viability, T/C (compound 3.16 µM) is 113% and 122% and 114%. The viability, T/C (compound 10 µM) is 103% and 119% and 63.5%.
